Assay results published in ChEMBL document CHEMBL4665869, “New thiazolopyrimidine as anticancer agents: Synthesis, biological evaluation, DNA binding, molecular modeling and ADMET study” (Bioorg Med Chem Lett, 2020).
In brackets after ≈: the same amount, converted by molar mass.

Assays:
NCI-H322M = assay: Growth inhibition of human NCI-H322M cells at 10 uM relative to control; format: functional; details: read-out: GI
SF-295 = assay: Growth inhibition of human SF-295 cells at 10 uM relative to control; format: functional; details: read-out: GI
DNA = assay: Displacement of methyl green from DNA (unknown origin) assessed as DNA intercalation after 24 hrs by colorimetric assay; format: nucleic-acid assay
TK-10 = assay: Growth inhibition of human TK-10 cells at 10 uM relative to control; format: functional; details: read-out: GI
SF-268 = assay: Growth inhibition of human SF-268 cells at 10 uM relative to control; format: functional; details: read-out: GI
Malme-3M = assay: Growth inhibition of human Malme-3M cells at 10 uM relative to control; format: functional; details: read-out: GI
786-0 = assay: Growth inhibition of human 786-0 cells at 10 uM relative to control; format: functional; details: read-out: GI
OVCAR-5 = assay: Growth inhibition of human OVCAR-5 cells at 10 uM relative to control; format: functional; details: read-out: GI
RXF 393 = assay: Growth inhibition of human RXF 393 cells at 10 uM relative to control; format: functional; details: read-out: GI
KM12 = assay: Growth inhibition of human KM12 cells at 10 uM relative to control; format: functional; details: read-out: GI
OVCAR-8 = assay: Growth inhibition of human OVCAR-8 cells at 10 uM relative to control; format: functional; details: read-out: GI
CCRF-CEM = assay: Growth inhibition of human CCRF-CEM cells at 10 uM relative to control; format: functional; details: read-out: GI
SF-539 = assay: Growth inhibition of human SF-539 cells at 10 uM relative to control; format: functional; details: read-out: GI
HOP-92 = assay: Growth inhibition of human HOP-92 cells at 10 uM relative to control; format: functional; details: read-out: GI
NCI-H522 = assay: Growth inhibition of human NCI-H522 cells at 10 uM relative to control; format: functional; details: read-out: GI
COLO 205 = assay: Growth inhibition of human COLO 205 cells at 10 uM relative to control; format: functional; details: read-out: GI
MDA-MB-468 = assay: Growth inhibition of human MDA-MB-468 cells at 10 uM relative to control; format: functional; details: read-out: GI
SN12C = assay: Growth inhibition of human SN12C cells at 10 uM relative to control; format: functional; details: read-out: GI
HCC 2998 = assay: Growth inhibition of human HCC 2998 cells at 10 uM relative to control; format: functional; details: read-out: GI
LOX IMVI = assay: Growth inhibition of human LOX IMVI cells at 10 uM relative to control; format: functional; details: read-out: GI
HL-60(TB) = assay: Growth inhibition of human HL-60(TB) cells at 10 uM relative to control; format: functional; details: read-out: GI
ACHN = assay: Growth inhibition of human ACHN cells at 10 uM relative to control; format: functional; details: read-out: GI
A549 = assay: Growth inhibition of human A549 cells at 10 uM relative to control; format: functional; details: read-out: GI
DU-145 = assay: Growth inhibition of human DU-145 cells at 10 uM relative to control; format: functional; details: read-out: GI
MDA-MB-435 = assay: Growth inhibition of human MDA-MB-435 cells at 10 uM relative to control; format: functional; details: read-out: GI
CAKI-1 = assay: Growth inhibition of human CAKI-1 cells at 10 uM relative to control; format: functional; details: read-out: GI
UO-31 = assay: Growth inhibition of human UO-31 cells at 10 uM relative to control; format: functional; details: read-out: GI
K562 = assay: Growth inhibition of human K562 cells at 10 uM relative to control; format: functional; details: read-out: GI
SK-MEL-28 = assay: Growth inhibition of human SK-MEL-28 cells at 10 uM relative to control; format: functional; details: read-out: GI
MOLT-4 = assay: Growth inhibition of human MOLT-4 cells at 10 uM relative to control; format: functional; details: read-out: GI
BT-549 = assay: Growth inhibition of human BT-549 cells at 10 uM relative to control; format: functional; details: read-out: GI
SNB-19 = assay: Growth inhibition of human SNB-19 cells at 10 uM relative to control; format: functional; details: read-out: GI
MCF7 = assay: Growth inhibition of human MCF7 cells at 10 uM relative to control; format: functional; details: read-out: GI
SK-MEL-5 = assay: Growth inhibition of human SK-MEL-5 cells at 10 uM relative to control; format: functional; details: read-out: GI
SR = assay: Growth inhibition of human SR cells at 10 uM relative to control; format: functional; details: read-out: GI
RPMI-8226 = assay: Growth inhibition of human RPMI-8226 cells at 10 uM relative to control; format: functional; details: read-out: GI
OVCAR-4 = assay: Growth inhibition of human OVCAR-4 cells at 10 uM relative to control; format: functional; details: read-out: GI
UACC-257 = assay: Growth inhibition of human UACC-257 cells at 10 uM relative to control; format: functional; details: read-out: GI
SNB-75 = assay: Growth inhibition of human SNB-75 cells at 10 uM relative to control; format: functional; details: read-out: GI
A498 = assay: Growth inhibition of human A498 cells at 10 uM relative to control; format: functional; details: read-out: GI
T47D = assay: Growth inhibition of human T47D cells at 10 uM relative to control; format: functional; details: read-out: GI
IGROV-1 = assay: Growth inhibition of human IGROV-1 cells at 10 uM relative to control; format: functional; details: read-out: GI
SK-OV-3 = assay: Growth inhibition of human SK-OV-3 cells at 10 uM relative to control; format: functional; details: read-out: GI
SK-MEL-2 = assay: Growth inhibition of human SK-MEL-2 cells at 10 uM relative to control; format: functional; details: read-out: GI
NCI/ADR-RES = assay: Growth inhibition of human NCI/ADR-RES cells at 10 uM relative to control; format: functional; details: read-out: GI
UACC-62 = assay: Growth inhibition of human UACC-62 cells at 10 uM relative to control; format: functional; details: read-out: GI
HOP-62 = assay: Growth inhibition of human HOP-62 cells at 10 uM relative to control; format: functional; details: read-out: GI
NCI-H23 = assay: Growth inhibition of human NCI-H23 cells at 10 uM relative to control; format: functional; details: read-out: GI
M14 = assay: Growth inhibition of human M14 cells at 10 uM relative to control; format: functional; details: read-out: GI
MDA-MB-231 = assay: Growth inhibition of human MDA-MB-231 cells at 10 uM relative to control; format: functional; details: read-out: GI
PC-3 = assay: Growth inhibition of human PC-3 cells at 10 uM relative to control; format: functional; details: read-out: GI
HT-29 = assay: Growth inhibition of human HT-29 cells at 10 uM relative to control; format: functional; details: read-out: GI
HCT-116 = assay: Growth inhibition of human HCT-116 cells at 10 uM relative to control; format: functional; details: read-out: GI
Hs-578T = assay: Growth inhibition of human Hs-578T cells at 10 uM relative to control; format: functional; details: read-out: GI
NCI-H226 = assay: Growth inhibition of human NCI-H226 cells at 10 uM relative to control; format: functional; details: read-out: GI
HCT-15 = assay: Growth inhibition of human HCT-15 cells at 10 uM relative to control; format: functional; details: read-out: GI
NCI-H460 = assay: Growth inhibition of human NCI-H460 cells at 10 uM relative to control; format: functional; details: read-out: GI
SW-620 = assay: Growth inhibition of human SW-620 cells at 10 uM relative to control; format: functional; details: read-out: GI
U-251 = assay: Growth inhibition of human U-251 cells at 10 uM relative to control; format: functional; details: read-out: GI

CC1=CSC2=NC(/C=C/c3cccs3)=CC(c3cccs3)N12 (centres undefined)
inhibition of growth at 10 µM (NCI-H322M): < 10% | inhibition of growth at 10 µM (SF-295): < 10% | IC50 (DNA): 39.82 µg/mL (≈ 116 µM) | inhibition of growth at 10 µM (TK-10): < 10% | inhibition of growth at 10 µM (SF-268): < 10% | inhibition of growth at 10 µM (Malme-3M): < 10% | inhibition of growth at 10 µM (786-0): < 10% | inhibition of growth at 10 µM (OVCAR-5): < 10% | inhibition of growth at 10 µM (RXF 393): < 10% | inhibition of growth at 10 µM (KM12): < 10% | inhibition of growth at 10 µM (OVCAR-8): < 10% | inhibition of growth at 10 µM (CCRF-CEM): < 10% | inhibition of growth at 10 µM (SF-539): < 10% | inhibition of growth at 10 µM (HOP-92): < 10% | inhibition of growth at 10 µM (NCI-H522): 13.3% | inhibition of growth at 10 µM (COLO 205): < 10% | inhibition of growth at 10 µM (MDA-MB-468): < 10% | inhibition of growth at 10 µM (SN12C): < 10% | inhibition of growth at 10 µM (HCC 2998): < 10% | inhibition of growth at 10 µM (LOX IMVI): < 10% | inhibition of growth at 10 µM (HL-60(TB)): < 10% | inhibition of growth at 10 µM (ACHN): < 10% | inhibition of growth at 10 µM (A549): < 10% | inhibition of growth at 10 µM (DU-145): < 10% | inhibition of growth at 10 µM (MDA-MB-435): < 10% | inhibition of growth at 10 µM (CAKI-1): < 10% | inhibition of growth at 10 µM (UO-31): < 10% | inhibition of growth at 10 µM (K562): < 10% | inhibition of growth at 10 µM (SK-MEL-28): < 10% | inhibition of growth at 10 µM (MOLT-4): < 10% | inhibition of growth at 10 µM (BT-549): < 10% | inhibition of growth at 10 µM (SNB-19): < 10% | inhibition of growth at 10 µM (MCF7): < 10% | inhibition of growth at 10 µM (SK-MEL-5): < 10% | inhibition of growth at 10 µM (SR): < 10% | inhibition of growth at 10 µM (RPMI-8226): < 10% | inhibition of growth at 10 µM (OVCAR-4): < 10% | inhibition of growth at 10 µM (UACC-257): < 10% | inhibition of growth at 10 µM (SNB-75): < 10% | inhibition of growth at 10 µM (A498): < 10% | inhibition of growth at 10 µM (T47D): < 10% | inhibition of growth at 10 µM (IGROV-1): < 10% | inhibition of growth at 10 µM (SK-OV-3): < 10% | inhibition of growth at 10 µM (SK-MEL-2): < 10% | inhibition of growth at 10 µM (NCI/ADR-RES): < 10% | inhibition of growth at 10 µM (UACC-62): < 10% | inhibition of growth at 10 µM (HOP-62): < 10% | inhibition of growth at 10 µM (NCI-H23): < 10% | inhibition of growth at 10 µM (M14): < 10% | inhibition of growth at 10 µM (MDA-MB-231): < 10% | inhibition of growth at 10 µM (PC-3): < 10% | inhibition of growth at 10 µM (HT-29): < 10% | inhibition of growth at 10 µM (HCT-116): < 10% | inhibition of growth at 10 µM (Hs-578T): < 10% | inhibition of growth at 10 µM (NCI-H226): < 10% | inhibition of growth at 10 µM (HCT-15): < 10% | inhibition of growth at 10 µM (NCI-H460): < 10% | inhibition of growth at 10 µM (SW-620): < 10% | inhibition of growth at 10 µM (U-251): < 10%
